This assay deals with interaction between p53 and MDM2 proteins (Homo sapiens, UniProt Q00987). Kind of assay: HTRF assay of inhibition of the p53-MDM2 interaction (GST-MDM2 and biotinylated p53 peptide). The assay is classed as binding. As to conditions: recombinant GST-tagged MDM2, biotinylated p53 peptide, 37° C. for 1 h. As to the method: The ability of the compounds to inhibit the interaction between p53 and MDM2 proteins was measured by an HTRF (homogeneous time-resolved fluorescence) assay in which recombinant GST-tagged MDM2 binds to a peptide that resembles the MDM2-interacting region of p53 (Lane et al.). Binding of GST-MDM2 protein and p53-peptide (biotinylated on its N-terminal end) is registered by the FRET (fluorescence resonance energy transfer) between Europium (Eu)-labeled anti-GST antibody and streptavidin-conjugated Allophycocyanin (APC).
Test is performed in black flat-bottom 384-well plates (Costar) in a total volume of 40 uL containing: 90 nM biotinylate peptide, 160 ng/mL GST-MDM2, 20 nM streptavidin-APC (PerkinElmerWallac), 2 nM Eu-labeled anti-GST-antibody (PerkinElmerWallac), 0.2% bovine serum albumin (BSA), 1 mM dithiothreitol (DTT) and 20 mM Tris-borate saline (TBS) buffer as follows: Add 10 uL of GST-MDM2 (640 ng/mL working solution) in reaction buffer to each well. […] Incubate at 37° C. for 1 h. […] If not specified, the reagents were purchased from Sigma Chemical Co.
For orientation: Time-resolved FRET reads energy transfer from a long-lived donor to a nearby acceptor.

Sequence of interaction between p53 and MDM2 proteins (Q00987 whole entry): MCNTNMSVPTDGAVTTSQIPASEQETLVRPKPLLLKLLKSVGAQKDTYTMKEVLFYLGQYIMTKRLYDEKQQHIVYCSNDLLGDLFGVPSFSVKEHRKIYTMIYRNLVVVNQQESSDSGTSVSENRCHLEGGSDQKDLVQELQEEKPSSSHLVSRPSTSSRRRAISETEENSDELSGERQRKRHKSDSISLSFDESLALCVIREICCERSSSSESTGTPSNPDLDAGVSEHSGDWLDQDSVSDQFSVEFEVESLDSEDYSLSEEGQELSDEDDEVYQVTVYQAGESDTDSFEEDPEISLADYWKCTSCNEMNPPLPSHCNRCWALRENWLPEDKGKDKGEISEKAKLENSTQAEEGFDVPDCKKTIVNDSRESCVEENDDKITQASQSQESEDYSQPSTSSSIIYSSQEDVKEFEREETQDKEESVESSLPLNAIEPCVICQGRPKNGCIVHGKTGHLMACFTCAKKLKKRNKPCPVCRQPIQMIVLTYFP

As usually defined, the IC50 is the midpoint of a concentration-inhibition curve. For `COc1ccc(C2=N[C@@](C)(c3ccc(Cl)cc3)[C@@H](c3ccc(Cl)cc3)N2C(=O)N2CCN(C(C)=O)CC2)c(OC(C)C)c1` (racemic) [Example 190, rac-1-{4-[(4S*,5R*)-4,5-Bis-(4-chloro-phenyl)-2-(2-isopropoxy-4-methoxy-phenyl)-4-methyl-4,5-dihydro-imidazole-1-carbonyl]-piperazin-1-yl}-ethanone], the IC50 worked out at 48 nM.
For the compound `CCOc1cc(S(=O)(=O)N2CCCC2)ccc1C1=N[C@@](C)(c2ccc(Cl)cc2)[C@@](C)(c2ccc(Cl)cc2)N1C(=O)N1CCN(CC(N)=O)CC1` [Example 35, 2-(4-{(4S,5R)-4,5-Bis-(4-chloro-phenyl)-2-[2-ethoxy-4-(pyrrolidine-1-sulfonyl)-phenyl]-4,5-dimethyl-4,5-dihydro-imidazole-1-carbonyl}-piperazin-1-yl)-acetamide], the IC50 was determined as 17 nM.
`CCOc1cc(C(C)(C)C)ccc1C1=N[C@@](C)(c2ccc(Cl)cc2)[C@@H](c2ccc(Cl)cc2)N1C(=O)N1CCN(C(C)=O)CC1` [Example 177, 1-{4-[(4S,5R)-2-(4-tert-Butyl-2-ethoxy-phenyl)-4,5-bis-(4-chloro-phenyl)-4-methyl-4,5-dihydro-imidazole-1-carbonyl]-piperazin-1-yl}-ethanone]: the IC50 worked out at 107 nM.

The values above are taken from patent publication US7851626B2, “4,4,5,5, tetrasubstituted imidazolines” (Hoffmann-La Roche Inc., priority 2005, dated 2010).
